Reference: patent publication US9000047B2, “Compound inhibiting activation of the enzyme Erk 1/2 to be used in the treatment of neurodegenerative illnesses” (Farmalider, S.A., priority 2010, dated 2015)

Assays:
Hippocampal neurons = assay: TUNEL assay for the detection of cellular apoptosis induced by β-amyloid peptide in hippocampal neurons; format: cell-based, mouse
Experimental: In a second in vitro assay, the apoptosis in nerve cells was measured by means of the TUNEL technique described in R. Sgonc et al., Trends Genetics, 1994, 10, 41-42. Apoptosis is the function that controls the death of a biological unit in a programmed manner.
Hippocampal neurons (obtained as described in Example 1) were cultured in 24 well plates (Nunc) at a density of 100,000 cells/well.
After 7 days under culture, β-amyloid peptide 1-40 (Aβ1-40) (Amyloid βProtein (1-40) trifluoroacetate salt, Bachem) (20 μM) was added and the cells were incubated for 72 h.
In order to study the inhibitory effect of the compound of formula (I), the cells were pre-incubated for 15 minutes with said compound at a concentration of 30 μM prior to the addition of the β-amyloid peptide, Aβ1-40.
After 72 h, the cells were fixed and the apoptotic neurons were detected by means of the TUNEL technique (Sgonc, R. et al. (1994) Trends Genetics 10, 41-42) with the in situ “cell death detection” kit, POD (Roche). In said kit, fluorescein-dUTP was used to label the DNA chain cleavage, which makes it possible to directly visualise the staining of the nuclei of the apoptotic neurons in the fluorescence microscope.
Parallel to this, the neuronal nuclei were stained with a specific monoclonal antibody (mouse anti-neuronal nuclei (NeuN) monoclonal antibody, 0.5 μg/ml, Chemicon) and a secondary anti-mouse Cy3 antibody (3.75 μg/ml, Jackson Immunoresearch Laboratories).
The quantification was performed by counting the positive nuclei following the TUNEL staining in 3 random fields and expressed as the % of dead neurons with respect to the total number of neurons in each field. Each inhibitor was assayed in triplicate in 4 independent experiments.
As a negative control, cells cultured for the same period of time, without treatment with the β-amyloid peptide (measurement of baseline spontaneous apoptosis), were used. As a positive control of 100% apoptosis, treatment with DNAse (20 U/ml) was used, following the procedure indicated in the commercial kit.
The value of the positive control (treatment with DNAse) was considered to be 100 and the rest of the measurements were adjusted in relation to this value.

protein kinase Erk 1/2 = assay: ELISA assay for the detection of the tPA-induced activation of Erk 1/2 in primary hippocampal neurons; format: cell-based, mouse; details: for normalised Erk 1/2 values, Mean value (arbitrary units): phospho-Erk 1/2 vs total Erk 1/2, 15 minutes pre-incubation with inhibitor, then tPA 20 μg/ml for 1 hour, tPA alone = 1, negative control 0.61
Text: The capacity to inhibit the activation of the protein kinase Erk 1/2 presented by the Compound of formula (I) has been determined by means of the ELISA (Enzyme-Linked Immunoadsorbent Assay) technique, as described in the Examples section.
In the ELISA assays, neurons from primary cultures of hippocampi isolated from mouse embryos (day 16.5 of gestation) were used, following the protocol described by Goslin and Banker (Goslin K and Banker G (1991) Culturing Nerve Cells, MIT Press, Cambridge, Mass.). This culture was used because the hippocampus is the main region affected in Alzheimer's disease and they are non-transformed cells.
10,000 cells/well were seeded in 96 well plates (Nunc) pre-treated with poly-L-Lys (SIGMA) and left under culture for 7 days.
The treatment with tPA was performed by adding it at 20 μg/ml (without changing the medium), for 1 hour. The treatment with the inhibitor, the compound of formula (I), was performed by means of a 15 minutes pre-incubation prior to the addition of tPA, as described above.
Following the treatments, the cells were fixed with methanol at a temperature of −20° C. for 5 min, and an ELISA assay was performed in order to detect the activation of Erk 1/2.
The wells were washed three times with TBST (Tris-buffered saline, 0.1% Triton® X-100) and blocked with 5% horse serum in TBST for 1 h at 37° C. They were once again washed with TBST, […] of the corresponding primary antibody (anti-phospho-Erk 1/2 Cell Signalling, catalogue number 9101, 1/500 or total Erk 1/2, Upstate catalogue number 06-182 1/1000 in 3% bovine serum albumin in TBST) were added and it was incubated overnight at 4° C.
After 4 washings with TBST, 0.45 μg/ml of the secondary alkaline-phospatase-coupled anti-rabbit antibody (DAKO, 1/800 in 3% bovine serum albumin in TBST) were added and it was kept for 1 h at 37° C.
4 washings with TBST were performed and it was developed using 4-methylumbelliferyl phosphate as the substrate (1 mg/ml in 0.2 M triethanolamine at pH 8.5) for 30 min at room temperature in the dark.
The results were quantified by means of fluorescence reading using the Cytofluor 235 fluorometer with an excitation filter of 360/40 and an emission filter of 460/40.
All the treatments were performed in sextuplicate in each experiment: 3 points for phosphorylated Erk 1/2 and 3 points for total Erk 1/2. At least 4 independent experiments were performed.
The following were used as controls: • 1) cells without treatment (negative control), • 2) cells treated with tPA and without an inhibitor (positive control), and • 3) cells incubated only with the secondary antibody and the substrate (negative control in the ELISA technique). […]

[1] = 15 minutes pre-incubation with inhibitor (compound of formula (I) 30 μM), then Aβ1-40 20 μM for 72 h, DNAse positive control = 100, negative control 0.4

| Compound | apoptosis of nerve cells, Mean value (%) of dead neurons (Hippocampal neurons; [1]) | inhibition of the apoptosis induced by the β-amyloid peptide (in words) (Hippocampal neurons; TUNEL, neurons cultured in vitro) | inhibition of the activation of the protein kinase Erk 1/2 induced by tPA (in words) (protein kinase Erk 1/2; ELISA, hippocampal neurons) | normalised Erk 1/2 values, Mean value (arbitrary units) (protein kinase Erk 1/2) | apoptosis of nerve cells, Mean value (%) of dead neurons (Hippocampal neurons; Aβ1-40 20 μM alone for 72 h, no inhibitor, DNAse positive control = 100) |
| --- | --- | --- | --- | --- | --- |
| NCC12CCC3CC(CC3C1)C2 (centres unmarked) [Compound of formula (I)] | 2.8% | efficiently inhibited | effectively inhibits | 0.61 arbitrary units | – |
| C[C@]12N[C@H](Cc3ccccc31)c1ccccc12 [Dizocilpine (MK-801), dizocilpine] | – | – | – | 0.73 arbitrary units | – |
| CC12CC3CC(C)(C1)CC(N)(C3)C2 [Memantine, memantine] | 4% | – | – | 0.75 arbitrary units | – |
| Amyloid βProtein (1-40) trifluoroacetate salt [β-amyloid peptide (Aβ1-40)] | – | – | – | – | 83.8% |
